{"source": "ChEMBL document CHEMBL1139695", "about": "“Development of pyrimidine-based inhibitors of Janus tyrosine kinase 3” (Bioorg Med Chem Lett, 2006)", "key": {"TF-1 [1]": {"system": "TF-1", "test": "cells", "details": "Homo sapiens", "description": "Inhibition of IL4-induced proliferation of TF1 cells"}, "TF-1 [2]": {"system": "TF-1", "test": "cells", "details": "Homo sapiens", "remark": "listed apart in the source", "description": "Inhibition of IL3-induced proliferation of TF1 cells"}}, "data": [{"smiles": "C[C@H](Nc1ccnc(-n2cnc3ccncc32)n1)c1ccc(F)cc1", "values": [{"measurement": "IC50", "setting": "TF-1 [1]", "value": 335, "unit": "nM"}, {"measurement": "IC50", "setting": "TF-1 [2]", "value": 635, "unit": "nM"}]}]}
